Measured values reported in patent US20240101552A1, “CARBONYL HETEROCYCLIC COMPOUND AND APPLICATION THEREOF” (SHANGHAI PHARMACEUTICALS HOLDING CO., LTD., priority 2020, published 2024).
“Also recorded” adds a separate entry of the source. Each block holds one molecule with its values, some of them ahead of it.

Tests used:
LANCL2 = LANCL2 (Homo sapiens (Human), UniProt Q9NS86); experiment: SPR (BIACORE S200) kinetic determination of LANCL2-small molecule interactions; assay type: binding; conditions: for Kd: immobilized LANCL2, 1:1 binding model, pH 6.5, 25° C.; for Rmax (RU): maximum binding force
Experimental: 1.1 Reagent Materials • Ligand: LANCL2 • Running buffer: 20 mM MES, 150 mM NaCl, 0.05% P20, pH 6.5, 1% DMSO
Injection conditions for small molecule compounds: a flow rate of 30 μL/min, a binding time of 60 s, a dissociation time of 300 s.
Running buffer: 20 mM MES, 150 mM NaCl, 0.05% P20, pH 6.5, 1% DMSO.
Sample chamber temperature: 25° C.; analysis temperature: 25° C.
Kinetic determination of LANCL2-small molecule interactions was performed. The kinetic parameters of small molecules BT-11 and L-1 to 60 (analytes) binding to LANCL2 (ligand) were determined using BIACORE S200. Data were generated in triplicate in a dose-dependent manner (5-8 titration points) and analyzed to determine binding models (Langmuir, conformational shifts, etc.), real-time association and dissociation constants, and equilibrium dissociation constants. SPR technology allows the validation of specific LANCL2-phytochemical interactions as well as an increased insight into the gold standard of binding mechanisms and rates. Experiments were performed on carboxymethyl polydextrose (CM5) sensor chips by amine-coupled covalent attachment of LANCL2. Data were analyzed with BIACORE S200T200 evaluation software (version 1), so as to determine affinity binding constants (KD) using a 1:1 binding model.
An optical technique for detecting molecular interactions, SPR, was used to measure the binding affinity between LANCL2 and a ligand thereof (compound to be tested). Purified recombinant LANCL2 protein was immobilized on a BIACORE sensor chip and small molecules were injected onto the protein surface using an equipment of microfluidic system. The change in total mass on the chip surface, corresponding to a small binding to the protein, was measured. […] The equilibrium dissociation constant (Kd) was often used to describe the affinity between a ligand and a protein, such as affinity degree of a ligand binding to a specific protein. Ligand-protein affinity was affected by non-covalent intermolecular interactions between two molecules, such as hydrogen bonding, electrostatic interactions, hydrophobic bonds and van der Waals forces. The steady-state affinity (Kd) for each interaction could be measured by plotting equilibrium binding levels against compound concentrations.

[1] = system: TNBS-induced colitis in mice; experiment: Alleviating effect on TNBS-induced colitis in mice, study (II); assay type: in vivo, Balb/c mice; conditions: for colon weight (FIG. 18B) / weight-to-length ratio of colon (FIG. 18C): L compounds PO 50 mpk BID, Mesalazine PO 100 mpk QD
Experimental: (§1) Sixty female Balb/c mice, weighing about 18 g and 8-10 weeks old, were randomly divided into twelve groups, including eleven model groups and one Sham control group. The administration was started on Day 1 and ended on Day 7, with the compounds prepared once a day, as detailed in Table 1 for route and frequency of administration, and Table 2 for compound preparation and volume of administration.
(§2) Balb/c mice weighing about 18-20 g were anesthetized with 0.25 mL of 1.25% Avertin on Day 0. The mice in the model group were perfused rectally with 150 μL of 1% TNBS solution (ethanol with a final concentration of 50%). The mice in the Sham control group were perfused rectally with 50% ethanol on Day 0.
(§3) The mouse colon was photographed, measured for the length, and weighed after the contents were removed. The colon of each mouse was then cut longitudinally at ½, rolled in a uniform direction by Swiss-roll method and fixed in neutral paraformaldehyde.
(§4) The DAI scoring consisted of 3 parts, taking the method of mixed scoring of weight change, stool and blood in stool, and the specific DAI scoring criteria were shown in Table 3. Throughout the experiment, the DAI scoring of all mice was done by the same person to ensure the scale consistency of the scoring.
The experimental data were statistically analyzed by ANOVA method, and data of other groups and the Vehicle (PO, QD) group were analyzed by Dunnett's test to compare data of multiple groups, *p<0.05, **p<0.01, ***p<0.005, ****p<0.0001

[2] = Solubility remark in the LANCL2 binding table (footnote a); assay type: physicochemical; design: key: ª: “a” indicated poor solubility
[3] = system: TNBS-induced colitis in mice; experiment: Alleviating effect on TNBS-induced enteritis (colitis) in mice, study (I); assay type: in vivo, Balb/c mice; conditions: vs Vehicle group, Mesalamine PO 100 mpk QD
Experimental: Preparation method of L56: an appropriate amount of L56 compound was weighed into a brown sample vial, added with a certain volume of solvent 95% (20% HP-β-CD)+5% (10% sodium benzoate), the mixture was vortexed for 1 minute, and dissolved ultrasonically. The compound was prepared once a day.
Preparation method of L30: an appropriate amount of L30 compound was weighed into a brown sample vial, added with a certain volume of solvent 95% (20% HP-β-CD)+5% (10% sodium benzoate), the mixture was vortexed for 1 minute, and dissolved ultrasonically. The compound was prepared once a day.
Preparation method of Mesa (Mesalamine): an appropriate amount of Mesalamine (Selleck) was weighed into a brown sample vial, added with a certain volume of solvent 0.5% CMC-Na, the mixture was vortexed for 1 minute, and dissolved ultrasonically. The compound was prepared once a day.
as §1, with “Fifty-six” for “Sixty”, “seven” for “twelve”, “six” for “eleven”
as §2, §3, §4
The histopathological scoring was performed by a professional pathologist on the clinical pathology platform in a double-blind manner.
The experimental data were statistically analyzed by ANOVA method, positive drug Mesalamine (PO, 100 mpk, QD) group, L56 (PO, 50 mpk, BID) group, L30 (PO, 50 mpk, BID) group, *p<0.05, **p<0.01, ***p<0.005, ****p<0.0001

[4] = vs Vehicle group, PO, 50 mpk, BID

Chain of LANCL2 (Q9NS86 whole entry, species assumed): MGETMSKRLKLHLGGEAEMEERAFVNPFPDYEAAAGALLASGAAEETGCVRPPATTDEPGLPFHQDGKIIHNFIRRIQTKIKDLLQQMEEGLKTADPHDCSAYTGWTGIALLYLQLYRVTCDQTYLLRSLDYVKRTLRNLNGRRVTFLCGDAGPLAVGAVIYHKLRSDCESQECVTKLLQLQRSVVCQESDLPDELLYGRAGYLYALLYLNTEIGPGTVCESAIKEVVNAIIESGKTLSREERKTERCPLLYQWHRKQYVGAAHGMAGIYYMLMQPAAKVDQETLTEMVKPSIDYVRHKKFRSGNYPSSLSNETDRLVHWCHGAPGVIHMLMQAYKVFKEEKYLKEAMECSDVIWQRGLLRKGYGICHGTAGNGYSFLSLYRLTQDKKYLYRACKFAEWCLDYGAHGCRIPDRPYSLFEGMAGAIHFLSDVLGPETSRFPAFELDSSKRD

Kd (LANCL2): 20.8 µM
Rmax (RU) (LANCL2): 2.3 RU
Compound: O=C1CCC(C(=O)N2CC3CN(C(=O)c4cccc(-c5nc6ccccc6[nH]5)n4)CC3C2)=NN1 [Embodiment L-121, 6-(5-(6-(1Hbenzo[d]imidazol-2-yl)picolinoyl)octahydropyrrolo[3,4-c]pyrrole-2-carbonyl)-4,5-dihydropyridazin-3(2H)-one]

Kd (LANCL2): 10.3 µM
Rmax (RU) (LANCL2): 7 RU
Compound: O=C(c1cnc2ccccc2c1)N1CC2CN(C(=O)c3cccc(-c4nc5ccccc5[nH]4)n3)CC2C1 [Embodiment L-122, (5-(6-(1Hbenzo[d]imidazol-2-yl)picolinoyl)hexahydropyrrolo[3,4-c]pyrrol-2(1H)-yl)(quinolin-3-yl)methanone]

Kd (LANCL2): 8.79 µM
Rmax (RU) (LANCL2): 4.8 RU
Compound: O=C(c1ccc(F)c(Cl)c1)N1CC2CN(C(=O)c3cccc(-c4nc5ccccc5[nH]4)n3)CC2C1 [Embodiment L-124, (5-(6-(1Hbenzo[d]imidazol-2-yl)picolinoyl)hexahydropyrrolo[3,4-c]pyrrol-2(1H)-yl)(3-chloro-4-fluorophenyl)methanone]

Kd (LANCL2): 23.5 µM
Rmax (RU) (LANCL2): 5.2 RU
Compound: Cc1ccc2cc(C(=O)N3CC4CN(C(=O)c5cccc(-c6nc7ccccc7[nH]6)n5)CC4C3)ccc2n1 [Embodiment L-125, (5-(6-(1Hbenzo[d]imidazol-2-yl)picolinoyl)hexahydropyrrolo[3,4-c]pyrrol-2(1H)-yl)(2-methylquinolin-6-yl)methanone]

Kd (LANCL2): 9.38 µM
Rmax (RU) (LANCL2): 5.1 RU
Compound: O=C(c1ccc(-c2ccccc2)cc1)N1CC2CN(C(=O)c3cccc(-c4nc5ccccc5[nH]4)n3)CC2C1 [Embodiment L-127, (5-(6-(1Hbenzo[d]imidazol-2-yl)picolinoyl)hexahydropyrrolo[3,4-c]pyrrol-2(1H)-yl)([1,1′-biphenyl]-4-yl)methanone]

Continued, molecule first:

Compound: O=C(c1cccc(-c2nc3ccccc3[nH]2)n1)N1CCN(C(=O)c2cccc(-c3nc4ccccc4[nH]3)n2)CC1 [BT-11, reference compound]
Kd (LANCL2): 4.46 µM
Rmax (RU) (LANCL2): 3.6 RU
weight loss of the mice (FIG. 16A) [1, 4]: not significantly slowed down

Compound: O=C(NC1C2CN(C(=O)c3cccc(-c4nc5ccccc5[nH]4)n3)CC21)c1cccc(-c2nc3ccccc3[nH]2)n1 [Embodiment L-11, N-(3-(6-(1H-benzo[d]imidazol-2-yl)picolinoyl)-3-azabicyclo[3.1.0]hexan-6-yl)-6-(1H-benzo[d]imidazol-2-yl)pyridinecarboxamide]
binding activity compared with positive reference compound BT-11 (LANCL2): better binding activities than the positive reference compound BT-11
Kd (LANCL2): 3.67 µM
Rmax (RU) (LANCL2): 4.2 RU
alleviation of TNBS-induced colitis / inflammation (conclusion) ([1]; PO, 50 mpk, BID): could significantly alleviate the occurrence of inflammation in mice with TNBS-induced colitis; also recorded: could effectively alleviate TNBS-induced colitis in mice
alleviation of symptoms of diarrhea and blood in stool ([1]; PO, 50 mpk, BID): could effectively alleviate the symptoms of diarrhea and blood in stool in TNBS model mice
alleviation of weight loss caused by TNBS-induced colitis (body weight changes and DAI scores combined) ([1]; PO, 50 mpk, BID): could effectively alleviate the weight loss in mice caused by TNBS-induced colitis
colon weight (FIG. 18B) ([1]; vs Vehicle group): less colon weight
weight-to-length ratio of colon (FIG. 18C) ([1]; vs Vehicle group): significantly lower
DAI scores (FIG. 16B) [1, 4]: significantly lower
blood in stool score (FIG. 17B) [1, 4]: significantly slowed down
colon length (FIG. 18A) [1, 4]: significantly more colon length
diarrhea score (FIG. 17A) [1, 4]: significantly slowed down
weight loss of the mice (FIG. 16A) [1, 4]: significantly slowed down

Compound: O=C(c1cccc(-c2cn3ccccc3n2)c1)N1CCN(C(=O)c2cccc(-c3cn4ccccc4n3)c2)CC1 [Embodiment L-36, Piperazine-1,4-diylbis((3-(imidazol[1,2-a]pyridin-2-yl)phenyl)methanone)]
solubility (footnote a) [2]: ª

Compound: Cc1ccncc1C(=O)N1CC2CN(C(=O)c3cccc(-c4nc5ccccc5[nH]4)n3)CC2C1 [Embodiment L-123, (5-(6-(1Hbenzo[d]imidazol-2-yl)picolinoyl)hexahydropyrrolo[3,4-c]pyrrol-2(1H)-yl)(4-methylpyridin-3-yl)methanone]
Kd (LANCL2): 18.3 µM
Rmax (RU) (LANCL2): 3.9 RU

Compound: O=C(c1cccc(-c2nc3ccccc3[nH]2)n1)N1CC2CN(C(=O)C3CCC(c4ccc(Cl)cc4)CC3)CC2C1 [Embodiment L-126, (5-(6-(1Hbenzo[d]imidazol-2-yl)picolinoyl)hexahydropyrrolo[3,4-c]pyrrol-2(1H)-yl)(4-(4-chlorophenyl)cyclohexyl)methanone]
Kd (LANCL2): 40.5 µM
Rmax (RU) (LANCL2): 3.3 RU

Compound: Nc1ccc(O)c(C(=O)O)c1 [Mesalamine]
colon tissue pathological scores (HE staining) ([3]; L56 PO 50 mpk BID): lower colon tissue pathological scores with a statistically significant difference
DAI scores (FIG. 13B) ([3]; L compounds PO 50 mpk BID): significantly lower
colon length (FIG. 14B) ([3]; L compounds PO 50 mpk BID): significantly more colon length
colon weight (FIG. 14C) ([3]; L compounds PO 50 mpk BID): less colon weight
weight loss of the mice (FIG. 13A) ([3]; L compounds PO 50 mpk BID): significantly slowed down
weight-to-length ratio of colon (FIG. 14A) ([3]; L compounds PO 50 mpk BID): significantly lower
colon weight (FIG. 18B) ([1]; vs Vehicle group): less colon weight
weight-to-length ratio of colon (FIG. 18C) ([1]; vs Vehicle group): significantly lower
